Data on one substance can be found in patent US6677354B2, “Piperdines for use as orexin receptor antagonists” (SmithKline Beecham p.l.c., priority 2000, dated 2004).

The test system of assay [1] is food intake in freely-feeding rats. The conditions noted are these: central administration, 4 hour time period; cited from earlier work.
Another assay deals with orexin receptors. Description: Rat sleep/EEG studies after central administration. Particulars: central administration at the onset of the normal sleep period. The class given is in vivo. An excerpt: Therefore antagonists of its receptor may be useful in the treatment of sleep disorders including insomnia.

As to “orexin-A: "orexin-A, an agonist of the orexin receptors"; "Human orexin-A has the amino acid sequence: pyroGlu Pro Leu Pro Asp Cys Cys Arg Gln Lys Thr Cys..."”, the “increase in food intake over control rats receiving vehicle” value in assay [1] is reported as “approximately four-fold”. In addition, the “effect on arousal and sleep” value in the assay on orexin receptors is listed as “dose-related increase in arousal”.
